Columns and labels:
Assay type in all cases: functional, cell-based
HT-29 = experiment: Cytotoxicity against human HT29 cells after 72 hrs by SRB assay; conditions: HT-29, 72 h
A549 = experiment: Cytotoxicity against human A549 cells after 72 hrs by SRB assay; conditions: A549, 72 h
K562 = experiment: Cytotoxicity against human K562 cells after 72 hrs by SRB assay; conditions: K562, 72 h

SMILES	IC50 (HT-29)	IC50 (A549)	IC50 (K562)
C=C1C(=O)[C@]23C[C@@H](O)[C@H]1C[C@H]2[C@]1(C)CCC[C@](C)(CO)[C@H]1C[C@H]3O [ALBOATISIN C]	20.6 µM	12.5 µM	28 µM
C=C1C(=O)[C@@]23[C@H](O)C[C@@H]4[C@@](C)(CO)CCC[C@@]4(C)[C@@H]2C[C@@H]1[C@H](O)[C@H]3O [ALBOATISINS A]	15.6 µM	10.5 µM	24.6 µM
C=C1C(=O)[C@@]23[C@H](O)C[C@H]4[C@@](C)(CCC[C@]4(C)C=O)[C@@H]2C[C@@H]1[C@H](O)[C@H]3O [ALBOATISINS B]	7.9 µM	8.3 µM	13.6 µM

— ChEMBL document CHEMBL1143680, “Alboatisins A-C, ent-atisene diterpenoids from Isodon albopilosus” (J Nat Prod, 2007)
